One experiment concerns the target T1, CDK6 (Homo sapiens, UniProt Q00534).
T1 construct: purchased Invitrogen PR8422B
The experiment can be described thus: In vitro kinase inhibition IC50, luminescence (ADP Glo), retinoblastoma substrate. As to conditions: read-out: CDK6/D1 IC50. Type of experiment: biochemical. Here is the method:
(§1) IC50 values of compounds against CDK4 and CDK6 were determined by luminescence using retinoblastoma as substrate. Kinase assays were performed in kinase buffer (#PV6135, Invitrogen Life Technologies, Grand Island, N.Y.) where total reaction volume was […] in 96-well half area white plates (#3693, Costar). One microliter of 25×test compounds at specific concentrations (e.g., final concentration range: 0.1 nM-200 nM) was mixed with 10 μL of 2.5×kinase (5 nM, CDK4 #PR8064A and CDK6 #PR8422B, Invitrogen) solution and 14 μL of 4× mixed solution with retinoblastoma (1 μM, #12-439, EMD Millipore, Hayward, Calif.) and ATP (25 μM, #V7038, Promega, Madison, Wis.). The plates were covered and incubated for 2H at room temperature. At the end of incubation, 25 μL of stop solution—ADP Glo reagent (#V7002, Promega) was added. After incubation for 45 min at room temperature, 50 μL of detection reagent (##V7002, Promega) was added. Readings were taken at 15 min and 45 min incubation after detection reagent was added in a Synergy Neo Plate reader (BioTek, Winooski, Vt.) at single excitation of 340 nm and Dual emission at 495 nm and 520 nm respectively. The following equations were used in the CDK4 and CDK6 assay data analysis. Percent inhibition (100-% activity) was fitted to the “four-parameter logistic model” in XLfit for determination of IC50 values.
(§2) Percent conversion of enzyme=100−{(RLUNo Drug−No enzyme*100)/RLUNo drug+Enzyme} Equation 1:
(§3) Percent conversion at each data point=100−{(RLUAverage(Drug+enzyme)*100)!RLUNo drug+Enzyme} Equation 2:
(§4) Percent Inhibition=100*(% Conversioneach data point/% ConversionEnzyme) Equation 3: […]
On the technique in general: ADP-Glo first removes unused ATP, then detects ADP through luciferase.

In experiment [1] the test system is DU4475 breast carcinoma cells. The experiment can be described thus: Cancer cell proliferation assay, single agent (cell viability). Type of experiment: cell-based. Particulars: Homo sapiens, DU-4475; Table 4; Rb negative; treatment 144 Hr with medium change at 72 Hr; Cell Titer-Glo or resazurin. Here is the method: (§5) The effects of test compounds were studied in three breast cancer cell lines of different subtype. The cancer cells (Table 3) were harvested during the logarithmic growth period and counted. Cell concentrations were adjusted to the appropriate number with respective medium and 90 μL cell suspensions were added to 96-well plates. After cells were seeded, the plates were shaken gently to distribute cells evenly and incubated at 37° C., 5% CO2 on day 1.
(§6) Cells were treated with test compounds at 7 to 9 concentrations within a desired concentration range (e.g. 1.1 nM-10 μM) on day 2 by series diluting the test compound stock solution (10 mM in DMSO) with culture medium. Treatment duration was 24 Hr for BT-549 cells and 144 Hr (with a medium change at 72 Hr) for MCF-7 and DU4475 cells. Cell viability was assessed by Cell Titer-Glo® as recommended by Promega (Cat. No.: G7572), or by resazurin assay (Sigma Aldrich, Cat. No.: R7017) post treatment.
(§7) Cell viability data were plotted using GraphPad Prism (GraphPad Software, Inc., San Diego, Calif.). In addition, a nonlinear regression model with a sigmoidal dose response and variable slope within GraphPad Prism was used to calculate the IC50 value of individual test compounds.
For orientation: Cellular ATP, detected with luciferase, serves as a proxy for viable cell number.

In experiment [2] the test system is MCF-7 breast adenocarcinoma cells. Described as above. Particulars: Homo sapiens, MCF7, Table 4; Rb positive; treatment 144 Hr with medium change at 72 Hr; Cell Titer-Glo or resazurin. Type of experiment: cell-based. Here is the method: as §5, §6, §7
For a further experiment, the target named is T2, CDK4 (Homo sapiens, UniProt P11802).
T2 construct: purchased Invitrogen PR8064A
T2 sequence (P11802 whole entry): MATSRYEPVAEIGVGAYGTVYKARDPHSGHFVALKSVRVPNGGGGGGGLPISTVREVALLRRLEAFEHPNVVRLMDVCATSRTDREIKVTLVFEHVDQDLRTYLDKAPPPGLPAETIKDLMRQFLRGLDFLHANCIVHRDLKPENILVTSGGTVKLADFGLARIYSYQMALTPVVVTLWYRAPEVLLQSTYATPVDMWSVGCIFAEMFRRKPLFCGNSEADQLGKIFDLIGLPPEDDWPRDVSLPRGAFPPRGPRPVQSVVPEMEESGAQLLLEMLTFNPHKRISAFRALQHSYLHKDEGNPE
T2 sequence (P24385 whole entry partner): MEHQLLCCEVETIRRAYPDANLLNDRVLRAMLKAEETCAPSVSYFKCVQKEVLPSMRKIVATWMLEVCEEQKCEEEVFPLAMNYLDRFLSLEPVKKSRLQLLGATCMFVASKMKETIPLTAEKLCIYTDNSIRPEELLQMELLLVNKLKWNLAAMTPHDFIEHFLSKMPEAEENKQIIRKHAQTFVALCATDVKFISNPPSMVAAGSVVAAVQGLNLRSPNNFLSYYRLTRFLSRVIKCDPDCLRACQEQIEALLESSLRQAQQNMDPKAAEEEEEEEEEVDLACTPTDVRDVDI
The experiment can be described thus: In vitro kinase inhibition IC50, luminescence (ADP Glo), retinoblastoma substrate. The experiment is classed as biochemical. As to conditions: read-out: CDK4/D1 IC50. The procedure:
as §1, §2, §3, §4

A value given as a limit tells only on which side of the number the result lay.

T1 sequence (Q00534 whole entry): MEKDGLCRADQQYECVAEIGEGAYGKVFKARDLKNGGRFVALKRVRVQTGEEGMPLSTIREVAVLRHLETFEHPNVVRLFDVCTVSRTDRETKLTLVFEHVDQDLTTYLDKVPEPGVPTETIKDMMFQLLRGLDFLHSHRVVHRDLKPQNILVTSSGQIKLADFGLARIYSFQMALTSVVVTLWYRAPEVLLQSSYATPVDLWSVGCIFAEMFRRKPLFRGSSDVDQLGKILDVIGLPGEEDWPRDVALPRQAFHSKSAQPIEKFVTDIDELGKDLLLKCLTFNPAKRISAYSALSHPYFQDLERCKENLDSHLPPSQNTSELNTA
T1 sequence (P24385 whole entry partner): as the sequence (P24385 whole entry partner) above

For `CN(C)CCCN1CCc2cc(Nc3ncc4cc(C#N)c(=O)n(C5CCCC5)c4n3)ccc2C1` [Compound No. 72, 8-cyclopentyl-2-((2-(3-(dimethylamino)propyl)-1,2,3,4-tetrahydroisoquinolin-6-yl)amino)-7-oxo-7,8-dihydropyrido[2,3-d]pyrimidine-6-carbonitrile], the IC50 on CDK6 stood at 1 nM; in experiment [1] it was 985 nM; in experiment [2], 330 nM.

On to `CN(C)CCN1Cc2cc(Nc3ncc4cc(C#N)c(=O)n(C5CCCC5)c4n3)ccc2C(C)(C)C1` [Compound No. 76, 8-cyclopentyl-2-((2-(2-(dimethylamino)ethyl)-4,4-dimethyl-1,2,3,4-tetrahydroisoquinolin-7-yl)amino)-7-oxo-7,8-dihydropyrido[2,3-d]pyrimidine-6-carbonitrile], for which the IC50 on CDK4 came out at 9.5 nM; on CDK6, 6 nM; in experiment [1], 660 nM; in experiment [2], 793 nM.

Consider `N#Cc1cc2cnc(Nc3ccc4c(c3)CCNC4)nc2n(CC2CC2)c1=O` [Compound No. 85, 8-(cyclopropylmethyl)-7-oxo-2-((1,2,3,4-tetrahydroisoquinolin-6-yl)amino)-7,8-dihydropyrido[2,3-d]pyrimidine-6-carbonitrile], for which the IC50 is more than 200 nM on CDK4, more than 190 nM on CDK6, 725 nM in experiment [1] and 723 nM in experiment [2].

Consider `CN(C)CCN1CCC(n2ccc(Nc3ncc4cc(C#N)c(=O)n(C5CCCC5)c4n3)cc2=O)CC1` [Compound No. 73, 8-cyclopentyl-2-((1-(1-(2-(dimethylamino)ethyl)piperidin-4-yl)-2-oxo-1,2-dihydropyridin-4-yl)amino)-7-oxo-7,8-dihydropyrido[2,3-d]pyrimidine-6-carbonitrile], for which the IC50 at CDK4 was 15 nM; at CDK6 it was 28 nM; in experiment [1], more than 8430 nM; in experiment [2], 1590 nM.

For the compound `CN(C)CCN1CCC(Nc2ncc3cc(C#N)c(=O)n(C4CCCC4)c3n2)CC1` [Compound No. 67, 8-cyclopentyl-2-((1-(2-(dimethylamino)ethyl)piperidin-4-yl)amino)-7-oxo-7,8-dihydropyrido[2,3-d]pyrimidine-6-carbonitrile], the IC50 is more than 140 nM at CDK4, more than 200 nM at CDK6, 4450 nM in experiment [1] and 1640 nM in experiment [2].

For `N#Cc1cc2cnc(Nc3ccc4c(c3)CNCCC4)nc2n(C2CCCC2)c1=O` [Compound No. 78, 8-cyclopentyl-7-oxo-2-((2,3,4,5-tetrahydro-1H-benzo[c]azepin-8-yl)amino)-7,8-dihydropyrido[2,3-d]pyrimidine-6-carbonitrile], the IC50 came out at 33 nM at CDK4, 15 nM at CDK6, 1670 nM in experiment [1] and 751 nM in experiment [2].

As to `CC(C)Cn1c(=O)c(C#N)cc2cnc(Nc3ccc4c(c3)CCNC4)nc21` [Compound No. 81, 8-isobutyl-7-oxo-2-((1,2,3,4-tetrahydroisoquinolin-6-yl)amino)-7,8-dihydropyrido[2,3-d]pyrimidine-6-carbonitrile], the IC50 on CDK4 is more than 200 nM; on CDK6, 137 nM; in experiment [1] it was 585 nM; in experiment [2], 641 nM.

Take `N#Cc1cc2cnc(Nc3ccc4c(c3)CCCNC4=O)nc2n(C2CCCC2)c1=O` [Compound No. 82, 8-cyclopentyl-7-oxo-2-((1-oxo-2,3,4,5-tetrahydro-1H-benzo[c]azepin-7-yl)amino)-7,8-dihydropyrido[2,3-d]pyrimidine-6-carbonitrile]: the IC50 was more than 200 nM at CDK4, 131 nM at CDK6, 250 nM in experiment [1] and 305 nM in experiment [2].

For the compound `Cc1c(C#N)c(=O)n(C2CCCC2)c2nc(NC3CCN(S(C)(=O)=O)CC3)ncc12` [Compound No. 389, 8-cyclopentyl-5-methyl-2-(1-(methylsulfonyl)piperidin-4-ylamino)-7-oxo-7,8-dihydropyrido[2,3-d]pyrimidine-6-carbonitrile], the IC50 is 7.5 nM at CDK4, 11 nM at CDK6 and 4220 nM in experiment [1].

With `CN(C)CCN1CCc2ccc(Nc3ncc4cc(C#N)c(=O)n(C5CCCC5)c4n3)cc2C1=O` [Compound No. 68, 8-cyclopentyl-2-((2-(2-(dimethylamino)ethyl)-1-oxo-1,2,3,4-tetrahydroisoquinolin-7-yl)amino)-7-oxo-7,8-dihydropyrido[2,3-d]pyrimidine-6-carbonitrile], the IC50 at CDK4 was more than 200 nM; on CDK6, more than 200 nM; in experiment [1], more than 10000 nM; in experiment [2], more than 10000 nM.

Take `CC(=O)N1CCc2cc(Nc3ncc4cc(C#N)c(=O)n(C5CCCC5)c4n3)ccc2C1` [Compound No. 71, 2-((2-acetyl-1,2,3,4-tetrahydroisoquinolin-6-yl)amino)-8-cyclopentyl-7-oxo-7,8-dihydropyrido[2,3-d]pyrimidine-6-carbonitrile]: the IC50 on CDK6 worked out at 5 nM; in experiment [1] it was 1650 nM; in experiment [2], 793 nM.

On to `N#Cc1cc2cnc(Nc3cnc4c(c3)CNCC4)nc2n(C2CCCC2)c1=O` [Compound No. 77, 8-cyclopentyl-7-oxo-2-((5,6,7,8-tetrahydro-1,6-naphthyridin-3-yl)amino)-7,8-dihydropyrido[2,3-d]pyrimidine-6-carbonitrile], for which the IC50 at CDK4 worked out at 132 nM; at CDK6, 43 nM; in experiment [1] it was 4560 nM; in experiment [2] it was 452 nM.

`CN(C)CCN1CCc2nc(Nc3ncc4cc(C#N)c(=O)n(C5CCCC5)c4n3)ccc2C1` [Compound No. 64, 8-cyclopentyl-2-((6-(2-(dimethylamino)ethyl)-5,6,7,8-tetrahydro-1,6-naphthyridin-2-yl)amino)-7-oxo-7,8-dihydropyrido[2,3-d]pyrimidine-6-carbonitrile]: the IC50 is more than 200 nM at CDK4, 32 nM on CDK6, 4740 nM in experiment [1] and 3590 nM in experiment [2].

On to `CN(C)CCN1CCc2ccc(Nc3ncc4cc(C#N)c(=O)n(C5CCCC5)c4n3)cc2C1` [Compound No. 62, 8-cyclopentyl-2-((2-(2-(dimethylamino)ethyl)-1,2,3,4-tetrahydroisoquinolin-7-yl)amino)-7-oxo-7,8-dihydropyrido[2,3-d]pyrimidine-6-carbonitrile], for which the IC50 at CDK4 was determined as 14 nM; on CDK6 it was 4 nM; in experiment [1], 1260 nM; in experiment [2], 594 nM.

Regarding `N#Cc1cc2cnc(Nc3ccc4c(c3)C(=O)NCCC4)nc2n(C2CCCC2)c1=O` [Compound No. 79, 8-cyclopentyl-7-oxo-2-((1-oxo-2,3,4,5-tetrahydro-1H-benzo[c]azepin-8-yl)amino)-7,8-dihydropyrido [2,3-d]pyrimidine-6-carbonitrile], the IC50 at CDK4 is more than 147 nM; on CDK6, 38 nM; in experiment [1], 4060 nM; in experiment [2], 1840 nM.

In the case of `CC1(C)CCCC1n1c(=O)c(C#N)cc2cnc(NC3CCN(S(C)(=O)=O)CC3)nc21` (stereo not drawn) [Compound No. 388, 8-(2,2-dimethylcyclopentyl)-2-(1-(methylsulfonyl)piperidin-4-ylamino)-7-oxo-7,8-dihydropyrido[2,3-d]pyrimidine-6-carbonitrile], the IC50 on CDK4 is 11 nM; on CDK6, 9 nM; in experiment [1], more than 5260 nM.
